Patent US20050143382A1 (4SC AG, priority 2003, published 2005)

How the values were obtained:
Format in all cases: biochemical
Settings in all cases: recombinant human kinase, 1 μM ATP
[1] = target: T1, IGF-1 R (Homo sapiens, UniProt P08069); experiment: 33PanQinase protein kinase activity assay, IGF-1 R
T1 construct: made in house; host or cells: Sf9 insect cells (baculovirus)
Description: (§1) The effect of the farazanopyrazine derivatives was tested on recombinant, human protein kinases. All protein kinases were expressed in Sf9 insect cells as human recombinant GST-fusion proteins or as His-tagged proteins by means of the baculovirus expression system. Protein kinases were purified by affinity chromatography using either GSH-agarose or Ni-NTH-agarose. The purity and identity of each was checked by SDS-PAGE/silver staining and by western blot analysis with specific antibodies.
(§2) A proprietary protein kinase assay (^33 PanQinase® Activity Assay) was used for measuring the kinase activity. All kinase assays were performed in 96-well FlashPlates™ in a 50 μl reaction volume. The assay for all enzymes contained 60 mM HEPES-NaOH, pH 7.5, 3 mM MgCl2, 3 mM MnCl2, 3 μM Na-orthovanadate, 1.2 mM DTT, 50 μg/ml PEG20000 and 1 μM [γ-^33P]-ATP (approx. 5×10^5 cpm per well).
(§3) The reaction cocktails were incubated at 30° C. for 80 minutes. The reaction was stopped with 50 μl of 2% (v/v) H3PO4, plates were aspirated and washed two times with 200 μl of 0.9% (w/v) NaCl. Incorporation of 33Pi was determined with a microplate scintillation counter. All assays were performed with a BeckmanCoulter/Sagian robotic system.

[2] = target: T2, SRC kinase (Homo sapiens, UniProt P12931); experiment: 33PanQinase protein kinase activity assay, SRC
T2 construct: made in house; host or cells: Sf9 insect cells (baculovirus)
Description: as §1, §2, §3

[3] = target: T3, Aurora B kinase (Homo sapiens, UniProt Q96GD4); experiment: 33PanQinase protein kinase activity assay, Aurora B
T3 construct: made in house; host or cells: Sf9 insect cells (baculovirus)
Description: as §1, §2, §3

[4] = target: T4, VEGF-R2 (Homo sapiens, UniProt P35968); experiment: 33PanQinase protein kinase activity assay, VEGF-R2
T4 construct: made in house; host or cells: Sf9 insect cells (baculovirus)
Description: as §1, §2, §3

T2 sequence (P12931 whole entry): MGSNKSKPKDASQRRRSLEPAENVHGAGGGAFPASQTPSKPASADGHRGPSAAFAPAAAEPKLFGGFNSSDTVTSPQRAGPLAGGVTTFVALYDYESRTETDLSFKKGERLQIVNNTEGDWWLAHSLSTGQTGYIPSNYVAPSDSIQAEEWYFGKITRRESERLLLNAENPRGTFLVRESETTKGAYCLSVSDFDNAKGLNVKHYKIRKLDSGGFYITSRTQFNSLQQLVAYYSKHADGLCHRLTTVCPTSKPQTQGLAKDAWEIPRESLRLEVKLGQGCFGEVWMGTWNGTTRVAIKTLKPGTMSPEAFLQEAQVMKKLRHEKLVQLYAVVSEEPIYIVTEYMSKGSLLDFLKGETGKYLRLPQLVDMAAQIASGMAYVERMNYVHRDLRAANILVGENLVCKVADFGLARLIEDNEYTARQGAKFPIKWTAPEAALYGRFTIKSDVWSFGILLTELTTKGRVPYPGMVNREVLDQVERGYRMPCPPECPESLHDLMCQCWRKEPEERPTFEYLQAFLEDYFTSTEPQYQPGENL
T4 sequence (P35968 20-1356): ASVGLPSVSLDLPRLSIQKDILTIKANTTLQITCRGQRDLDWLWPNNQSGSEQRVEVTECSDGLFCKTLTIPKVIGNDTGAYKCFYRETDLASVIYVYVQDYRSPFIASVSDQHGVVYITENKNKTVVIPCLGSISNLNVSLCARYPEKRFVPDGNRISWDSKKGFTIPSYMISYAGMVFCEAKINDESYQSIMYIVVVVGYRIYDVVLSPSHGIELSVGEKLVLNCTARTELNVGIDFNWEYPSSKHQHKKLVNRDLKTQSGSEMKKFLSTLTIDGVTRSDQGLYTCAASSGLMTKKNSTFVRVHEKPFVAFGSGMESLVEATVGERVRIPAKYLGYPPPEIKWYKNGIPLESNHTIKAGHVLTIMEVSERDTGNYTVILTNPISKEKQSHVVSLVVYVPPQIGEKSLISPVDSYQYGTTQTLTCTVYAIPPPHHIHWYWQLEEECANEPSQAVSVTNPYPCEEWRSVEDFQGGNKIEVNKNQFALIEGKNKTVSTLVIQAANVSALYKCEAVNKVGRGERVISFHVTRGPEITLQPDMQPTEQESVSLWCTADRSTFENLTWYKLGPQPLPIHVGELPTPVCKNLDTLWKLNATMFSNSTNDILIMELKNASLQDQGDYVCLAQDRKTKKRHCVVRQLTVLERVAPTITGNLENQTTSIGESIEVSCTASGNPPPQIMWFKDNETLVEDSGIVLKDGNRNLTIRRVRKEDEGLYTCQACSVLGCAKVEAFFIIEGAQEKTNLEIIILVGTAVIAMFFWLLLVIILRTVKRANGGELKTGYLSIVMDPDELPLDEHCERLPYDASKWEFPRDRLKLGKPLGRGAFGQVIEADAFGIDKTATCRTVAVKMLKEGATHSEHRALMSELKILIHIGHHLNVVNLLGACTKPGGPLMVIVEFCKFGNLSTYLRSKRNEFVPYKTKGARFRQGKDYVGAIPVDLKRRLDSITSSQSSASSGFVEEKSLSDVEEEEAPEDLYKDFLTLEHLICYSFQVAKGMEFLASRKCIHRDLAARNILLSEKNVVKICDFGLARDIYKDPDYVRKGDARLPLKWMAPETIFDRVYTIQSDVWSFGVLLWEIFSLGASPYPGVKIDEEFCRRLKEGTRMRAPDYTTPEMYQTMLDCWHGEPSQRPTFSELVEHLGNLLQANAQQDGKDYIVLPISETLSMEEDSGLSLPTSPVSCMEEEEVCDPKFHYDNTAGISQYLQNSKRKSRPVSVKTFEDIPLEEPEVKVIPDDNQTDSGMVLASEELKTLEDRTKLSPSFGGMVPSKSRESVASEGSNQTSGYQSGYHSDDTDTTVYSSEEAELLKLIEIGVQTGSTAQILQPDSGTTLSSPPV
T1 sequence (P08069 31-1367): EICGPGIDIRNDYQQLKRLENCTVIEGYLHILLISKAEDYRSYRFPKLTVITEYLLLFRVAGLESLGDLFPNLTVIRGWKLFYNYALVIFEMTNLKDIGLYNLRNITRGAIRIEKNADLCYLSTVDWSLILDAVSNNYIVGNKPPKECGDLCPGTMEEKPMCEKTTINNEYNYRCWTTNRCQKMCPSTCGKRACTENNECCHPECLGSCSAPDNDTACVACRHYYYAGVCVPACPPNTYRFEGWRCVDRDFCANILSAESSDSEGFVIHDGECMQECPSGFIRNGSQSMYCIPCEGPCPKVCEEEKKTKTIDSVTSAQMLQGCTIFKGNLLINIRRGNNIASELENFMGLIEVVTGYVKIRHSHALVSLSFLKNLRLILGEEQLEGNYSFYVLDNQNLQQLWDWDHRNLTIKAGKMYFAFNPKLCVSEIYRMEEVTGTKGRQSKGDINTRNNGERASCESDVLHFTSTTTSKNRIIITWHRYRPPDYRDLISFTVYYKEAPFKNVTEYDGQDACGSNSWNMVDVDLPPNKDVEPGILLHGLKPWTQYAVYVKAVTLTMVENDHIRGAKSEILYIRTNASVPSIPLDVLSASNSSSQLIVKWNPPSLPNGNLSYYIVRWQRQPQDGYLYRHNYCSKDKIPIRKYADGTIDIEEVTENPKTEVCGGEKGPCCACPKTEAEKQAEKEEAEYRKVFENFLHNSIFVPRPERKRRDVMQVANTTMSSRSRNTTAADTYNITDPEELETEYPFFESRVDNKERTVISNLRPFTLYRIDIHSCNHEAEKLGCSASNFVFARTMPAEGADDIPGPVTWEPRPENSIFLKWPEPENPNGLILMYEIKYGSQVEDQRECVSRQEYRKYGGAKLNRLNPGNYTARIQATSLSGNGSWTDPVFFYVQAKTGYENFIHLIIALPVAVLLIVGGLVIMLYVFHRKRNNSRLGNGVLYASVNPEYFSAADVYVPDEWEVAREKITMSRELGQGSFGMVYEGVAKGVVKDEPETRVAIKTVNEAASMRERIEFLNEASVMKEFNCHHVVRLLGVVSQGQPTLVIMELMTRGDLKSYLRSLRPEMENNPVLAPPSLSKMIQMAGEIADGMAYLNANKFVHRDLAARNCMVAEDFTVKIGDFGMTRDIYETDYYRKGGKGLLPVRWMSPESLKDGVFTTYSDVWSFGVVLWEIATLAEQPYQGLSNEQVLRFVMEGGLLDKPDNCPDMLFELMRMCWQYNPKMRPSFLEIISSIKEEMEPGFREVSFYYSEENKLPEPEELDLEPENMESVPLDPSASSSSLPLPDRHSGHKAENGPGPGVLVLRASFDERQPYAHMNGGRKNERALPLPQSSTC
T3 sequence (Q96GD4 whole entry): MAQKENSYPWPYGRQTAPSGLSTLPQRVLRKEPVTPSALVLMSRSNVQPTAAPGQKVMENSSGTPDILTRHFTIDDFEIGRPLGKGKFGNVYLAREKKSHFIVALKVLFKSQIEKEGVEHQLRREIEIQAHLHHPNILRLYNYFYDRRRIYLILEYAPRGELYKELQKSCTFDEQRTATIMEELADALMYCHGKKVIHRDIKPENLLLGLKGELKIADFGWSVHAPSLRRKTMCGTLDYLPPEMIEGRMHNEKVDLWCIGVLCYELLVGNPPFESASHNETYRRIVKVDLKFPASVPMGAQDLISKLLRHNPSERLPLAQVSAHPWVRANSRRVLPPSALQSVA

SMILES | IC50 [1] | IC50 [2] | IC50 [3] | IC50 [4]
O=C(O)c1cc(-c2ccc(C=NNc3nc4nonc4nc3Nc3ccc(F)c(Cl)c3)o2)ccc1Cl [Example 176] | < 1 µM | < 1 µM | < 10 µM | < 2 µM
O=C(O)c1cc(-c2ccc(C=NNc3nc4nonc4nc3Nc3ccc(Br)cc3)o2)ccc1Cl [Example 52] | < 1 µM | < 1 µM | < 10 µM | < 2 µM
O=C(O)c1ccc(-c2ccc(C=NNc3nc4nonc4nc3Nc3ccc(Cl)c(Cl)c3)o2)cc1 [Example 199] | < 1 µM | < 1 µM | < 10 µM | < 2 µM
O=C(O)c1cc(-c2ccc(C=NNc3nc4nonc4nc3Nc3ccccc3F)o2)ccc1O [Example 23] | < 1 µM | < 1 µM | < 10 µM | < 2 µM
O=C(O)c1cccc(-c2ccc(C=NNc3nc4nonc4nc3Nc3ccc(F)c(Cl)c3)o2)c1 [Example 173] | < 1 µM | < 1 µM | < 10 µM | 
O=C(O)c1cccc(-c2ccc(C=NNc3nc4nonc4nc3NCc3ccccc3)o2)c1 [Example 111] |  |  | < 10 µM | 
Oc1ccc(C=NNc2nc3nonc3nc2Nc2ccccc2)c(O)c1 [Example 81] |  |  | < 10 µM | 
O=C(O)c1cccc(-c2ccc(C=NNc3nc4nonc4nc3Nc3ccccc3)o2)c1 [Example 89] |  |  | < 10 µM | 
COc1cc(C=NNc2nc3nonc3nc2Nc2ccccc2F)cc([N+](=O)[O-])c1O [Example 7] |  | < 1 µM | < 10 µM | < 2 µM
COc1ccccc1Nc1nc2nonc2nc1NN=Cc1cc(I)cc(I)c1O [Example 47] |  |  | < 10 µM | 
Oc1ccc(C=NNc2nc3nonc3nc2Nc2cccc(Cl)c2)c(O)c1 [Example 147] |  |  | < 10 µM | 
O=C(O)c1cc(-c2ccc(C=NNc3nc4nonc4nc3Nc3ccc(Cl)c(Cl)c3)o2)ccc1Cl [Example 196] | < 1 µM | < 1 µM | < 10 µM | < 2 µM
Oc1ccc(C=NNc2nc3nonc3nc2Nc2ccc(F)c(Cl)c2)c(O)c1 [Example 165] |  |  | < 10 µM | < 2 µM
O=S(=O)(O)c1ccc(C=NNc2nc3nonc3nc2Nc2ccc(F)c(Cl)c2)o1 [Example 181] |  |  | < 10 µM | 
Oc1ccc(C=NNc2nc3nonc3nc2Nc2ccc(Cl)c(Cl)c2)c(O)c1 [Example 189] |  |  | < 10 µM | 
O=C(O)c1ccc(-c2ccc(C=NNc3nc4nonc4nc3NCc3ccccc3)o2)cc1 [Example 117] |  |  | < 10 µM | 
O=C(O)c1cccc(-c2ccc(C=NNc3nc4nonc4nc3Nc3cccc(Cl)c3)o2)c1 [Example 154] | < 1 µM | < 1 µM | < 10 µM | < 2 µM
O=C(O)c1cccc(-c2ccc(C=NNc3nc4nonc4nc3Nc3ccc(Cl)c(Cl)c3)o2)c1 [Example 194] | < 1 µM | < 1 µM | < 10 µM | < 2 µM
O=C1Nc2ccccc2C1=NNc1nc2nonc2nc1Nc1ccccc1 [Example 95, 3-[(6-Phenylamino-[1,2,5]oxadiazolo [3,4-b]pyrazin-5-yl)-hydrazono]-1,3-dihydro-indol-2-one] | < 1 µM |  | < 10 µM | 
Oc1ccc(C=NNc2nc3nonc3nc2Nc2ccc(F)cc2)c(O)c1 [Example 126] |  |  | < 10 µM | 
Fc1ccc(Nc2nc3nonc3nc2NN=Cc2ccc(-c3ccc(Cl)cc3)o2)cc1Cl [Example 180, (3-Chloro-4-fluoro-phenyl)-(6-{N′-[5-(4-chloro-phenyl)-furan-2-yl-methylene]-hydrazino}-[1,2,5]oxadiazolo [3,4-b]pyrazin-5-yl)-amine] | < 1 µM | < 1 µM |  | < 2 µM
